According to the supplement of paper PMC10307832:

Assays:
Experiment in all cases: relative viability (nuclei count vs DMSO), 5 days (fraction); higher = more cells survive
ABC-1 = tested on: ABC-1
Summary of the method: (§1)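 Medians of duplicate plates are given as relative viability. That measure is the nuclei count in treated wells divided by the count in vehicle wells. Counts were taken on 4× images of lung cancer cell lines in 1536-well plates, 5 days after pin-tool dosing the day after seeding with one drug alone or a fixed anchor-drug dose plus five library-drug doses (not always all listed) in √10 steps.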

CAL-12T = tested on: CAL-12T
Summary of the method: as §1

COR-L 105 = tested on: COR-L 105
Summary of the method: as §1

ChaGo-K-1 = tested on: ChaGo-K-1
Summary of the method: as §1

EMC-BAC-2 = tested on: EMC-BAC-2
Summary of the method: as §1

EPLC-272H = tested on: EPLC-272H
Summary of the method: as §1

HCC-15 = tested on: HCC-15
Summary of the method: as §1

HCC-78 = tested on: HCC-78
Summary of the method: as §1

HOP-62 = tested on: HOP-62
Summary of the method: as §1

LXF-289 = tested on: LXF-289
Summary of the method: as §1

NCI-H1666 = tested on: NCI-H1666
Summary of the method: as §1

NCI-H1755 = tested on: NCI-H1755
Summary of the method: as §1

NCI-H1915 = tested on: NCI-H1915
Summary of the method: as §1

NCI-H1975 = tested on: NCI-H1975
Summary of the method: as §1

NCI-H1993 = tested on: NCI-H1993
Summary of the method: as §1

NCI-H2023 = tested on: NCI-H2023
Summary of the method: as §1

NCI-H2085 = tested on: NCI-H2085
Summary of the method: as §1

NCI-H2126 = tested on: NCI-H2126
Summary of the method: as §1

NCI-H3122 = tested on: NCI-H3122
Summary of the method: as §1

NCI-H322M = tested on: NCI-H322M
Summary of the method: as §1

NCI-H358 = tested on: NCI-H358
Summary of the method: as §1

NCI-H441 = tested on: NCI-H441
Summary of the method: as §1

UMC-11 = tested on: UMC-11
Summary of the method: as §1

CC1(C)CCC(c2ccc(Cl)cc2)=C(CN2CCN(c3ccc(C(=O)NS(=O)(=O)c4ccc(N[C@H](CCN5CCOCC5)CSc5ccccc5)c(S(=O)(=O)C(F)(F)F)c4)cc3)CC2)C1 [Navitoclax] + COc1cccc2cc(-c3nc([C@H]4CC[C@H](C(=O)O)CC4)n4ncnc(N)c34)[nH]c12 [OSI-027] (partner 0.5 µM)
relative viability (ABC-1; first compound 0.005 µM): 0.506
relative viability (ABC-1; first compound 0.01581 µM): 0.637
relative viability (ABC-1; first compound 0.05 µM): 0.397
relative viability (ABC-1; first compound 0.1581 µM): 0.572
relative viability (ABC-1; first compound 0.5 µM): 0.356
relative viability (CAL-12T; first compound 0.005 µM): 0.649
relative viability (CAL-12T; first compound 0.01581 µM): 0.676
relative viability (CAL-12T; first compound 0.05 µM): 0.557
relative viability (CAL-12T; first compound 0.1581 µM): 0.677
relative viability (CAL-12T; first compound 0.5 µM): 0.629
relative viability (COR-L 105; first compound 0.005 µM): 0.663
relative viability (COR-L 105; first compound 0.01581 µM): 1.01
relative viability (COR-L 105; first compound 0.05 µM): 0.573
relative viability (COR-L 105; first compound 0.1581 µM): 0.775
relative viability (COR-L 105; first compound 0.5 µM): 0.582
relative viability (ChaGo-K-1; first compound 0.005 µM): 0.548
relative viability (ChaGo-K-1; first compound 0.01581 µM): 0.536
relative viability (ChaGo-K-1; first compound 0.05 µM): 0.541
relative viability (ChaGo-K-1; first compound 0.1581 µM): 0.55
relative viability (ChaGo-K-1; first compound 0.5 µM): 0.6
relative viability (EMC-BAC-2; first compound 0.005 µM): 0.392
relative viability (EMC-BAC-2; first compound 0.01581 µM): 0.362
relative viability (EMC-BAC-2; first compound 0.05 µM): 0.382
relative viability (EMC-BAC-2; first compound 0.1581 µM): 0.351
relative viability (EMC-BAC-2; first compound 0.5 µM): 0.372
relative viability (EPLC-272H; first compound 0.005 µM): 0.296
relative viability (EPLC-272H; first compound 0.05 µM): 0.323
relative viability (EPLC-272H; first compound 0.1581 µM): 0.317
relative viability (EPLC-272H; first compound 0.5 µM): 0.3
relative viability (HCC-15; first compound 0.005 µM): 0.695
relative viability (HCC-15; first compound 0.01581 µM): 0.746
relative viability (HCC-15; first compound 0.05 µM): 0.573
relative viability (HCC-15; first compound 0.1581 µM): 0.699
relative viability (HCC-15; first compound 0.5 µM): 0.624
relative viability (HCC-78; first compound 0.005 µM): 0.399
relative viability (HCC-78; first compound 0.01581 µM): 0.343
relative viability (HCC-78; first compound 0.1581 µM): 0.349
relative viability (HCC-78; first compound 0.5 µM): 0.384
relative viability (HOP-62; first compound 0.005 µM): 0.734
relative viability (HOP-62; first compound 0.01581 µM): 0.971
relative viability (HOP-62; first compound 0.05 µM): 0.863
relative viability (HOP-62; first compound 0.1581 µM): 0.648
relative viability (HOP-62; first compound 0.5 µM): 0.894
relative viability (LXF-289; first compound 0.005 µM): 0.77
relative viability (LXF-289; first compound 0.01581 µM): 0.867
relative viability (LXF-289; first compound 0.05 µM): 0.731
relative viability (LXF-289; first compound 0.1581 µM): 0.753
relative viability (LXF-289; first compound 0.5 µM): 0.795
relative viability (NCI-H1666; first compound 0.005 µM): 0.823
relative viability (NCI-H1666; first compound 0.01581 µM): 0.815
relative viability (NCI-H1666; first compound 0.05 µM): 0.859
relative viability (NCI-H1666; first compound 0.1581 µM): 0.758
relative viability (NCI-H1666; first compound 0.5 µM): 0.839
relative viability (NCI-H1755; first compound 0.005 µM): 0.683
relative viability (NCI-H1755; first compound 0.01581 µM): 0.834
relative viability (NCI-H1755; first compound 0.05 µM): 0.612
relative viability (NCI-H1755; first compound 0.1581 µM): 0.649
relative viability (NCI-H1755; first compound 0.5 µM): 0.671
relative viability (NCI-H1915; first compound 0.005 µM): 0.595
relative viability (NCI-H1915; first compound 0.01581 µM): 0.636
relative viability (NCI-H1915; first compound 0.05 µM): 0.627
relative viability (NCI-H1915; first compound 0.1581 µM): 0.521
relative viability (NCI-H1915; first compound 0.5 µM): 0.629
relative viability (NCI-H1975; first compound 0.005 µM): 0.764
relative viability (NCI-H1975; first compound 0.01581 µM): 0.83
relative viability (NCI-H1975; first compound 0.05 µM): 0.823
relative viability (NCI-H1975; first compound 0.1581 µM): 0.688
relative viability (NCI-H1975; first compound 0.5 µM): 0.677
relative viability (NCI-H1993; first compound 0.005 µM): 0.566
relative viability (NCI-H1993; first compound 0.01581 µM): 0.523
relative viability (NCI-H1993; first compound 0.05 µM): 0.551
relative viability (NCI-H1993; first compound 0.1581 µM): 0.523
relative viability (NCI-H1993; first compound 0.5 µM): 0.607
relative viability (NCI-H2023; first compound 0.005 µM): 0.405
relative viability (NCI-H2023; first compound 0.01581 µM): 0.446
relative viability (NCI-H2023; first compound 0.05 µM): 0.338
relative viability (NCI-H2023; first compound 0.1581 µM): 0.38
relative viability (NCI-H2023; first compound 0.5 µM): 0.416
relative viability (NCI-H2085; first compound 0.005 µM): 0.664
relative viability (NCI-H2085; first compound 0.01581 µM): 0.871
relative viability (NCI-H2085; first compound 0.05 µM): 0.544
relative viability (NCI-H2085; first compound 0.1581 µM): 0.846
relative viability (NCI-H2085; first compound 0.5 µM): 0.757
relative viability (NCI-H2126; first compound 0.005 µM): 0.764
relative viability (NCI-H2126; first compound 0.01581 µM): 0.849
relative viability (NCI-H2126; first compound 0.1581 µM): 0.72
relative viability (NCI-H2126; first compound 0.5 µM): 0.716
relative viability (NCI-H3122; first compound 0.005 µM): 0.98
relative viability (NCI-H3122; first compound 0.01581 µM): 0.949
relative viability (NCI-H3122; first compound 0.05 µM): 1.04
relative viability (NCI-H3122; first compound 0.1581 µM): 0.902
relative viability (NCI-H3122; first compound 0.5 µM): 0.978
relative viability (NCI-H322M; first compound 0.005 µM): 0.536
relative viability (NCI-H322M; first compound 0.01581 µM): 0.696
relative viability (NCI-H322M; first compound 0.05 µM): 0.552
relative viability (NCI-H322M; first compound 0.1581 µM): 0.545
relative viability (NCI-H322M; first compound 0.5 µM): 0.706
relative viability (NCI-H358; first compound 0.005 µM): 0.785
relative viability (NCI-H358; first compound 0.01581 µM): 1.01
relative viability (NCI-H358; first compound 0.05 µM): 0.706
relative viability (NCI-H358; first compound 0.1581 µM): 0.845
relative viability (NCI-H358; first compound 0.5 µM): 0.686
relative viability (NCI-H441; first compound 0.005 µM): 0.732
relative viability (NCI-H441; first compound 0.01581 µM): 0.635
relative viability (NCI-H441; first compound 0.05 µM): 0.58
relative viability (NCI-H441; first compound 0.1581 µM): 0.56
relative viability (NCI-H441; first compound 0.5 µM): 0.849
relative viability (UMC-11; first compound 0.005 µM): 0.462
relative viability (UMC-11; first compound 0.01581 µM): 0.501
relative viability (UMC-11; first compound 0.05 µM): 0.471
relative viability (UMC-11; first compound 0.1581 µM): 0.422
relative viability (UMC-11; first compound 0.5 µM): 0.234
